In patent US20160115540A1, “PRODRUGS AND DRUGS” (Biogen MA Inc., priority 2013, published 2016):
Where a name gives a salt, the structure may show the parent alone.

System: hippocampus
Test: Transcriptional profiling on Affymetrix GeneChips, single dose, naïve mice: hippocampus
Assay type: in vivo, C57BL/6 mice
Conditions: for Tmtc3 (1458305_PM_at) differential expression: 7 hr; for Number of differentially expressed genes identified: Hippocampus: Naïve, Single Dose
Experimental: Treated mice were sacrificed at 2, 7, or 12 hours. Tissues (liver, spleen, kidney, jejunum, cortex, hippocampus, striatum and whole blood) were collected and analyzed by transcriptional profiling on mouse Affymetrix GeneChips.
Tissues (liver, spleen, kidney, jejunum, cortex, hippocampus, striatum and whole blood) were collected and analyzed by transcriptional profiling on mouse Affymetrix GeneChips.
Animals were exposed to CO2 and whole blood collected via cardiac puncture. Two 100 μl aliquots of whole blood were collected in 1.5 mL microcentrifuge tubes and snap frozen in liquid nitrogen. Peripheral (liver, spleen, kidney and jejunum) and CNS brain (cerebellum, hippocampus, striatum and cortex) tissues were harvested and snap frozen in liquid nitrogen, with special care taken to collect tissues of similar size and from the same location. All samples were stored at −80° C. until RNA extraction was conducted.
For RNA preparation, frozen tissues were placed in 2 mL RNAse-free 96-well blocks with 1.5 mL QIAzol Lysis Reagent (QIAgen) and a 3.2 mm stainless steel bead (BioSpec Products, Bartlesville, Okla.). Tissues were disrupted for four cycles of 45 seconds in a Mini-Beadbeater (Biospec Products). RNA was extracted in chloroform and the aqueous phase was mixed with an equal volume of 70% ethanol. Extracted RNA was applied to RNeasy 96 plates and purified by the spin method according to the manufacturer's protocol (RNeasy 96 Universal Tissue Protocol, QIAgen, Hilden Germany).
Automated sample amplifications and biotin labelings were carried out using the NuGEN Ovation RNA Amplification system V2 (Cat #3100), Ovation WB reagent (Cat #1300) and Encore Biotin module (Cat #4200) (NuGEN Technologies, Inc, San Carlos, Calif.) according to manufacturer's recommendations using an Arrayplex automated liquid handler (Beckman Coulter, Indianapolis, Ind.). Two micrograms of biotin labeled sscDNA probe were hybridized to Affymetrix GeneChip Affymetrix HT_MG-430_PM plate arrays with modified conditions as described in Allaire et al. Washing and staining of the hybridized arrays were completed as described in the GeneChip Expression analysis technical manual for HT plate arrays using the Genechip® Array Station (Affymetrix, Santa Clara, Calif.) with modifications as described in Allaire et al. The processed GeneChip® plate arrays were scanned using GeneTitan scanner (Affymetrix, Santa Clara, Calif.).
Affymetrix scans were subject to quality control (QC) measures. These tests included a visual inspection of the distribution of raw signal intensities and an assessment of RNA degradation, relative log expression (RLE), and normalized unsealed standard error (NUSE). All sample scans that passed these QC metrics were included in the analysis.
All CEL files were subjected to GC-content-based Robust Multi-array Average (GCRMA) normalization (version 2.20.0) (Irizarry R A, et al. Nucleic Acids Res 2003; 31:e15; Li C, et al. Genome Biol 2001; 2:[…]0032). Expression levels were log (base 2) transformed.
All calculations and analyses were carried out using R (version 2.11.1) and Bioconductor computational tools (Gentleman R. Springer Science+Business Media 2005).

[1] = 100 mpk, vs Vehicle, 2 h after last dosing
[2] = 100 mpk, vs Vehicle, 7 h after last dosing
[3] = 100 mpk, vs Vehicle, 12 h after last dosing
[4] = hippocampus, 100DMF-vs-100MMF, 2 h
[5] = hippocampus, 100DMF-vs-Veh, 7 h
[6] = hippocampus, 100MMF-vs-Veh, 2 h
[7] = hippocampus, 100MMF-vs-Veh, 7 h
[8] = hippocampus, 2 hr after single 100 mg/kg oral dose

`COC(=O)/C=C/C(=O)OC` [DMF, dimethyl fumarate] was tested, and the “Number of genes, DMF Only / MMF Only” value (Hippocampus) was 0, the “Tmtc3 (1458305_PM_at) differential expression” value (Hippocampus) was −2.38 and the “Number of differentially expressed genes identified: Hippocampus” value (“Number of differentially” below) (100 mpk DMF-vs-100 mpk MMF, 2 h after last dosing) was 2. For the same compound, the “Number of differentially” value (100 mpk DMF-vs-100 mpk MMF, 7 h after last dosing) was 0, the “Number of differentially” value (100 mpk DMF-vs-100 mpk MMF, 12 h after last dosing) was 0 and the “Number of differentially” value [1] was 0. For the same compound, the “Number of differentially” value [2] was 2, the “Number of differentially” value [3] was 0 and the “FC Dio2 (1418938_PM_at)” value [4] was 1.58. The “FC Tmtc3 (1458305_PM_at)” value [4] was −1.88, the differentially expressed genes (hippocampus, 100DMF-vs-100MMF, 7 h) was “None” and the differentially expressed genes (hippocampus, 100DMF-vs-100MMF, 12 h) was “None”. The differentially expressed genes (hippocampus, 100DMF-vs-Veh, 2 h) was “None”, the “FC Tmtc3 (1458305_PM_at)” value [5] was −2.38 and the “FC probe 1443353_PM_at” value [5] was −1.84. The differentially expressed genes (hippocampus, 100DMF-vs-Veh, 12 h) was “None”.

In the case of `COC(=O)/C=C/C(=O)O` [MMF, monomethyl fumarate], the “Number of genes, DMF Only / MMF Only” value (Hippocampus) is reported as 6, the “Dnajc18 (1425077_PM_at) differential expression” value (Hippocampus, 2 hr) is reported as −1.58 and the “Heatr5b (1438085_PM_at) differential expression” value (Hippocampus, 2 hr) is reported as −1.56. The “Kcnq3 (1458421_PM_at) differential expression” value (Hippocampus, 2 hr) was −1.50, the “Kpna4 (1417975_PM_at) differential expression” value (Hippocampus, 2 hr) was −1.51 and the “Nfat5 (1426029_PM_a_at) differential expression” value (Hippocampus, 2 hr) was −1.51. The “Srgap2 (1434407_PM_at) differential expression” value (Hippocampus, 2 hr) was −1.50, the “Tmtc3 (1458305_PM_at) differential expression” value (Hippocampus) was −2.40 and the “Number of differentially” value [1] was 3. The “Number of differentially” value [2] was 2, the “Number of differentially” value [3] was 1 and the “FC Heatr5b (1438085_PM_at)” value [6] was −1.56. For the same compound, the “FC Kpna4 (1417975_PM_at)” value [6] was −1.51, the “FC Srgap2 (1434407_PM_at)” value [6] was −1.50 and the “FC Tmtc3 (1458305_PM_at)” value [7] was −2.40. For the same compound, the “FC probe 1443353_PM_at” value [7] was −1.74, the “FC LOC100502895 (1435119_PM_at)” value (hippocampus, 100MMF-vs-Veh, 12 h) was 1.66 and the “Dnajc18 mRNA fold change vs vehicle” value [8] was −1.58. The “Heatr5b mRNA fold change vs vehicle” value [8] was −1.56, the “Kcnq3 mRNA fold change vs vehicle” value [8] was −1.50 and the “Kpna4 mRNA fold change vs vehicle” value [8] was −1.51. For the same compound, the “Nfat5 mRNA fold change vs vehicle” value [8] was −1.51, the “Srgap2 mRNA fold change vs vehicle” value [8] was −1.50 and the “Tmtc3 mRNA fold change vs vehicle” value (hippocampus, 7 hr after single 100 mg/kg oral dose) was −2.40.
